Source: ChEMBL document CHEMBL1201862, “PubChem BioAssay data set” (2004)
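All cell lines were grown in 96-well plates and treated with compound for 48 hours. GI50: concentration for 50% inhibition of growth.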 Active and inactive are the calls of the source. Rule as the data show it: active = GI50 up to about 1.1 µM and inactive = higher.

Tests used:
Assay in all cases: NCI anticancer screen, dose series, 48 h
U-251 = tested on: U-251
CCRF-CEM = tested on: CCRF-CEM
COLO 205 = tested on: COLO 205
SK-MEL-2 = tested on: SK-MEL-2
SR = tested on: SR
SK-OV-3 = tested on: SK-OV-3
MOLT-4 = tested on: MOLT-4
K562 = tested on: K562
SF-295 = tested on: SF-295
SN12C = tested on: SN12C
RPMI-8226 = tested on: RPMI-8226
TK-10 = tested on: TK-10
LXFL 529 = tested on: LXFL 529
UO-31 = tested on: UO-31
NCI-H226 = tested on: NCI-H226
HL-60 = tested on: HL-60
OVCAR-5 = tested on: OVCAR-5
EKVX = tested on: EKVX
XF498 = tested on: XF498
DMS-114 = tested on: DMS-114
786-0 = tested on: 786-0
SNB-78 = tested on: SNB-78
NCI-H23 = tested on: NCI-H23
OVCAR-8 = tested on: OVCAR-8
M19-MEL = tested on: M19-MEL
SF-539 = tested on: SF-539
Malme-3M = tested on: Malme-3M
HCT-116 = tested on: HCT-116
DLD-1 = tested on: DLD-1
KM12 = tested on: KM12
IGROV-1 = tested on: IGROV-1
SK-MEL-5 = tested on: SK-MEL-5
SNB-19 = tested on: SNB-19
KM-20L2 = tested on: KM-20L2
OVCAR-4 = tested on: OVCAR-4
A498 = tested on: A498
SF-268 = tested on: SF-268
M14 = tested on: M14
UACC-62 = tested on: UACC-62
LOX IMVI = tested on: LOX IMVI
UACC-257 = tested on: UACC-257
HT-29 = tested on: HT-29
ACHN = tested on: ACHN
NCI-H522 = tested on: NCI-H522
NCI-H460 = tested on: NCI-H460
HOP-62 = tested on: HOP-62
A549 = tested on: A549
HCT-15 = tested on: HCT-15
OVCAR-3 = tested on: OVCAR-3
SW-620 = tested on: SW-620
CAKI-1 = tested on: CAKI-1
SK-MEL-28 = tested on: SK-MEL-28
PC-3 = tested on: PC-3
MDA-MB-435 = tested on: MDA-MB-435
BT-549 = tested on: BT-549
SNB-75 = tested on: SNB-75
RXF 393 = tested on: RXF 393
MDA-N = tested on: MDA-N
HOP-92 = tested on: HOP-92
DU-145 = tested on: DU-145
NCI/ADR-RES = tested on: NCI/ADR-RES
MCF7 = tested on: MCF7
MDA-MB-231 = tested on: MDA-MB-231
Hs-578T = tested on: Hs-578T
T47D = tested on: T47D
HCC 2998 = tested on: HCC 2998
DMS-273 = tested on: DMS-273

For COC(=O)[C@@]1(C)C(=O)CC[C@@H]1C=O, the GI50 (U-251) was > 100 µM (inactive), the GI50 (CCRF-CEM) was > 100 µM (inactive) and the GI50 (COLO 205) was > 100 µM (inactive). For the same compound, the GI50 (SK-MEL-2) was > 100 µM (inactive), the GI50 (SR) was 82.2 µM (inactive) and the GI50 (SK-OV-3) was > 100 µM (inactive). The GI50 (MOLT-4) was > 100 µM (inactive), the GI50 (K562) was > 100 µM (inactive) and the GI50 (SF-295) was > 100 µM (inactive). The GI50 (SN12C) was > 100 µM (inactive), the GI50 (RPMI-8226) was > 100 µM (inactive) and the GI50 (TK-10) was > 100 µM (inactive). For the same compound, the GI50 (LXFL 529) was > 100 µM (inactive), the GI50 (UO-31) was > 100 µM (inactive) and the GI50 (NCI-H226) was > 100 µM (inactive). For the same compound, the GI50 (HL-60) was 60.5 µM (inactive), the GI50 (OVCAR-5) was > 100 µM (inactive) and the GI50 (EKVX) was > 100 µM (inactive). The GI50 (XF498) was > 100 µM (inactive), the GI50 (DMS-114) was > 100 µM (inactive) and the GI50 (786-0) was > 100 µM (inactive). The GI50 (SNB-78) was > 100 µM (inactive), the GI50 (NCI-H23) was > 100 µM (inactive) and the GI50 (OVCAR-8) was > 100 µM (inactive). For the same compound, the GI50 (M19-MEL) was > 100 µM (inactive), the GI50 (SF-539) was > 100 µM (inactive) and the GI50 (Malme-3M) was > 100 µM (inactive). The GI50 (HCT-116) was > 100 µM (inactive), the GI50 (DLD-1) was > 100 µM (inactive) and the GI50 (KM12) was > 100 µM (inactive). The GI50 (IGROV-1) was > 100 µM (inactive), the GI50 (SK-MEL-5) was > 100 µM (inactive) and the GI50 (SNB-19) was > 100 µM (inactive). The GI50 (KM-20L2) was > 100 µM (inactive), the GI50 (OVCAR-4) was > 100 µM (inactive) and the GI50 (A498) was > 100 µM (inactive). For the same compound, the GI50 (SF-268) was > 100 µM (inactive), the GI50 (M14) was > 100 µM (inactive) and the GI50 (UACC-62) was > 100 µM (inactive). The GI50 (LOX IMVI) was > 100 µM (inactive), the GI50 (UACC-257) was > 100 µM (inactive) and the GI50 (HT-29) was > 100 µM (inactive). For the same compound, the GI50 (ACHN) was > 100 µM (inactive), the GI50 (NCI-H522) was > 100 µM (inactive) and the GI50 (NCI-H460) was > 100 µM (inactive). For the same compound, the GI50 (HOP-62) was > 100 µM (inactive), the GI50 (A549) was > 100 µM (inactive) and the GI50 (HCT-15) was > 100 µM. For the same compound, the GI50 (OVCAR-3) was > 100 µM (inactive), the GI50 (SW-620) was > 100 µM (inactive) and the GI50 (CAKI-1) was > 100 µM (inactive).

In the case of C=C1C(=O)C[C@H]2C(=C)C(=O)O[C@@H]2C2C1CC[C@@]2(C)O (stereo partly specified), the GI50 (U-251) is reported as 45.6 µM (inactive), the GI50 (CCRF-CEM) is reported as > 100 µM (inactive) and the GI50 (COLO 205) is reported as 14.5 µM (inactive). The GI50 (SK-MEL-2) was 21.5 µM (inactive), the GI50 (SR) was 27.1 µM (inactive) and the GI50 (SK-OV-3) was > 100 µM (inactive). For the same compound, the GI50 (MOLT-4) was 23.2 µM (inactive), the GI50 (K562) was 16.3 µM (inactive) and the GI50 (SK-MEL-28) was 27.4 µM (inactive). For the same compound, the GI50 (SF-295) was > 100 µM (inactive), the GI50 (SN12C) was 42.6 µM (inactive) and the GI50 (RPMI-8226) was 7.98 µM (inactive). The GI50 (TK-10) was 21.1 µM (inactive), the GI50 (PC-3) was 30.6 µM (inactive) and the GI50 (UO-31) was 23.2 µM (inactive). The GI50 (MDA-MB-435) was 30.3 µM (inactive), the GI50 (BT-549) was 19.8 µM (inactive) and the GI50 (NCI-H226) was 22.2 µM (inactive). The GI50 (HL-60) was > 100 µM (inactive), the GI50 (OVCAR-5) was 32.8 µM (inactive) and the GI50 (EKVX) was 62.8 µM (inactive). For the same compound, the GI50 (786-0) was 19.9 µM (inactive), the GI50 (NCI-H23) was 24.9 µM (inactive) and the GI50 (OVCAR-8) was 31.7 µM (inactive). The GI50 (SF-539) was 26.8 µM (inactive), the GI50 (SNB-75) was > 100 µM (inactive) and the GI50 (RXF 393) was 15.4 µM (inactive). The GI50 (Malme-3M) was 16.3 µM (inactive), the GI50 (MDA-N) was 29.7 µM (inactive) and the GI50 (HCT-116) was 31.8 µM (inactive). The GI50 (KM12) was 50 µM (inactive), the GI50 (HOP-92) was 26.4 µM (inactive) and the GI50 (DU-145) was 73.3 µM (inactive). For the same compound, the GI50 (IGROV-1) was 33.1 µM (inactive), the GI50 (NCI/ADR-RES) was 26.2 µM (inactive) and the GI50 (SK-MEL-5) was 39.4 µM (inactive). The GI50 (SNB-19) was > 100 µM (inactive), the GI50 (MCF7) was 16 µM (inactive) and the GI50 (OVCAR-4) was > 10 µM (inactive). For the same compound, the GI50 (A498) was > 100 µM (inactive), the GI50 (SF-268) was > 100 µM (inactive) and the GI50 (M14) was 16.1 µM (inactive). For the same compound, the GI50 (UACC-62) was 14.9 µM (inactive), the GI50 (LOX IMVI) was 17.5 µM (inactive) and the GI50 (UACC-257) was 21.5 µM (inactive). For the same compound, the GI50 (MDA-MB-231) was 25.1 µM (inactive), the GI50 (HT-29) was 20 µM (inactive) and the GI50 (ACHN) was 12.2 µM (inactive). For the same compound, the GI50 (Hs-578T) was 26.9 µM (inactive), the GI50 (T47D) was 28.2 µM (inactive) and the GI50 (NCI-H522) was 12.7 µM (inactive). For the same compound, the GI50 (NCI-H460) was 18.8 µM (inactive), the GI50 (HOP-62) was 31.3 µM (inactive) and the GI50 (A549) was 44.4 µM (inactive). The GI50 (HCT-15) was 17.7 µM, the GI50 (OVCAR-3) was 16.1 µM (inactive) and the GI50 (HCC 2998) was 19 µM (inactive). For the same compound, the GI50 (SW-620) was 23 µM (inactive) and the GI50 (CAKI-1) was 16.7 µM (inactive).

For COc1cccc2ccc(C(=O)c3ccccc3)nc12, the GI50 (U-251) was > 100 µM (inactive), the GI50 (CCRF-CEM) was 79.4 µM (inactive) and the GI50 (COLO 205) was > 100 µM (inactive). The GI50 (SK-MEL-2) was > 100 µM (inactive), the GI50 (SR) was > 100 µM (inactive) and the GI50 (MOLT-4) was > 100 µM (inactive). The GI50 (K562) was > 100 µM (inactive), the GI50 (SK-MEL-28) was 88.9 µM (inactive) and the GI50 (SF-295) was > 100 µM (inactive). For the same compound, the GI50 (SN12C) was > 100 µM (inactive), the GI50 (RPMI-8226) was > 100 µM (inactive) and the GI50 (TK-10) was > 100 µM (inactive). The GI50 (LXFL 529) was 77.8 µM (inactive), the GI50 (UO-31) was 2.22 µM (inactive) and the GI50 (NCI-H226) was > 100 µM (inactive). The GI50 (OVCAR-5) was > 100 µM (inactive), the GI50 (EKVX) was > 100 µM (inactive) and the GI50 (XF498) was > 100 µM (inactive). The GI50 (786-0) was > 100 µM (inactive), the GI50 (SNB-78) was > 100 µM (inactive) and the GI50 (NCI-H23) was > 100 µM (inactive). The GI50 (OVCAR-8) was > 100 µM (inactive), the GI50 (SF-539) was > 100 µM (inactive) and the GI50 (SNB-75) was > 100 µM (inactive). The GI50 (Malme-3M) was > 100 µM (inactive), the GI50 (HCT-116) was > 100 µM (inactive) and the GI50 (DLD-1) was > 100 µM (inactive). The GI50 (KM12) was > 100 µM (inactive), the GI50 (IGROV-1) was > 100 µM (inactive) and the GI50 (DMS-273) was > 100 µM (inactive). The GI50 (SK-MEL-5) was > 100 µM (inactive), the GI50 (KM-20L2) was > 100 µM (inactive) and the GI50 (OVCAR-4) was > 100 µM (inactive). For the same compound, the GI50 (SF-268) was > 100 µM (inactive), the GI50 (M14) was > 100 µM (inactive) and the GI50 (UACC-62) was > 100 µM (inactive). For the same compound, the GI50 (LOX IMVI) was > 100 µM (inactive), the GI50 (ACHN) was > 100 µM (inactive) and the GI50 (NCI-H522) was > 100 µM (inactive). The GI50 (HOP-62) was > 100 µM (inactive), the GI50 (A549) was > 100 µM (inactive) and the GI50 (HCT-15) was > 100 µM. The GI50 (OVCAR-3) was > 100 µM (inactive), the GI50 (HCC 2998) was > 100 µM (inactive) and the GI50 (SW-620) was > 100 µM (inactive). For the same compound, the GI50 (CAKI-1) was > 100 µM (inactive).
